# What was measured:
# HIV-1 NL43/AMD3100 = assay: microbe, parasite or virus in culture; format: cell-based
# HIV-1 L6 = format: cell-based; settings: L6 versus wild type strain L1
# [1] = biological target: T1, Recombinant HIV-1 RT (HXB2) (Human immunodeficiency virus type 1 group M subtype B, UniProt P04585); assay: inhibition of HIV-1 reverse transcriptase enzymatic activity; format: biochemical
# T1 construct: Recombinant HIV-1 RT (HXB2) was obtained as described by Jonckheere et al; made in house
# From the text: Poly(rC).oligo(dG) and poly (rA).oligo(dT) were used as template-primers, and 8-[^3H]-dGTP and [^3H]-dTTP were used as radiolabelled substrates.
# [2] = cytotoxicity, viability of mock-infected cells; format: cell-based; settings: human, viability of mock-infected MT-4 cells
# Method: Cytotoxicity of these compounds was determined in parallel by measuring the viability of mock-infected MT-4 or C8166 cells 5 days post-infection. The antiviral activity and cytotoxicity data, including average values and standard deviations for at least two separate experiments, are depicted in Table 2, wherein: CC50 represents the 50% cytotoxic concentration, i.e. the concentration that reduces by 50% the viability of MT-4 cells.
# [3] = biological target: T2, recombinant His-tagged HIV-1 integrase (Human immunodeficiency virus type 1 group M subtype B, UniProt P04585); assay: HIV-1 integrase strand transfer assay, oligonucleotide-based
# HIV-1 = assay: combined inhibitory effect on HIV-1-induced cytopathic effect, isobologram method; format: cell-based; settings: combination with nevirapine, MT-4 cells, FIG. 4
# Method: The antiviral effect of compound H was tested in combination with the nucleoside reverse transcriptase inhibitor zidovudine, the non-nucleoside reverse transcriptase inhibitor nevirapine and the protease inhibitor nelfinavir.
# The combined inhibitory effect on HIV-1-induced cytopathic effect was evaluated by the isobologram method, as previously described by Elion et al. in J. Biol. Chem. (1954) 208:477-488 and by Baba et al. in Antimicrob. Agents Chemother. (1984) 25:515-517.
# EC50, as defined herein before, was used for calculating the fractional inhibitory concentration (hereinafter referred as FIC). When the minimum FIC index corresponding to the FIC of combined compounds (e.g., FICx+FICy) is equal to 1.0, the combination is said to be additive; when it is beween 1.0 and 0.5, the combination is by definition said to be subsynergistic, and when it is <0.5, the combination is by definition said to be synergistic. When the minimum FIC index is between 1.0 and 2.0, the combination is said to be subantagonistic and, when it is >2.0, the combination is defined as antagonistic.
# [4] = system: HIV-1 strains L2, L4 and L6; assay: antiviral activity against multi-drug resistant (MddNR) HIV-1 strains; format: cell-based; settings: strains L2, L4 and L6 versus parental strain L1
# HIV-1 L4 = format: cell-based
# HIV-1 NL43/DS5000 = assay: microbe, parasite or virus in culture; format: cell-based
# [5] = system: HIV-1 (NDK, NL4.3 and L1), HIV-2 (ROD and EHO) and SIV (MAC251); assay: antiviral activity against several HIV and SIV strains; format: cell-based; settings: range over HIV-1 (NDK, NL4.3 and L1)
# [6] = system: HIV-1-derived vectors pseudotyped with the VSV-G envelope; assay: microbe, parasite or virus in culture; format: cell-based; settings: Human immunodeficiency virus 1, HEK-293T, read-out: EC50 inhibition of transduction
# SIV (MAC251) = assay: inhibition of virus-induced cytopathicity in MT-4 cells, SIV (MAC251); format: cell-based, Simian immunodeficiency virus; settings: Simian immunodeficiency virus, MT4, 120 h, read-out: EC50 SIV MAC251
# HIV-1(IIIB) [7] = assay: time of addition experiment, viral p24 antigen production; format: cell-based; settings: MT-4 cells, m.o.i. 0.5, 250 μM, p24 at 31 hours post-infection
# Method: A time of addition experiment was carried out in order to investigate which step of the replicative cycle was inhibited by compound H. Briefly, this experiment determines how long the addition of an anti-HIV compound can be postponed before losing its antiviral activity in the viral replication cycle. MT-4 cells were infected with HIV-1(IIIB) at a multiplicity of infection (m.o.i.) of 0.5 in order to synchronize all steps of viral replication and the various antiviral test compounds were added at different times (ranging from 0 up to 26 hours) after infection. Viral p24 antigen production was determined 31 hours post-infection (using HIV-1 p24 Core Profile ELISA, Du Pont, Dreieich, Germany) and is expressed as the log10 of the p24 Ag content in pg/ml. Reference compounds with a known mode of action were included in this experiment. Dextran sulfate, a polyanion, interferes with binding of the virus to the cell. The nucleoside analogue AZT inhibits the reverse transcription process. Ritonavir is a proteolytic cleavage inhibitor. […]. Compound H was added at 250 μM. In FIG. 1 showing the results of this experiment, the following symbols were used: (●) for control, (▴) for dextran sulfate (20 μM), (▪) for AZT (1.9 μM), (▪) for ritonavir (2.8 μM) and (*) for compound H (250 μM).
# [8] = biological target: T2, recombinant His-tagged HIV-1 integrase; assay: HIV-1 integrase 3′-processing assay, oligonucleotide-based
# Method: Reactions were started by the addition of the enzyme. Inhibitors were incubated shortly with the reaction components before the addition of integrase. Reactions were allowed to proceed at 37° C. for 7 minutes and stopped by the addition of formamide loading buffer (95% formamide, 30 mM ethylenediamine tetraacetic acid, 0.1% xylene cyanol, 0.1% bromophenol blue, 0.1% sodium dilaurylsulfate SDS). In the overall integration assay, this reaction was allowed to proceed for 60 minutes before the addition of a formamide dye.
# HIV-1(IIIB) [9] = assay: inhibition of virus-induced cytopathicity in MT-4 cells, HIV-1 (IIIB); format: cell-based; settings: for EC50: MT-4 cells, viral cytopathic effect, 5 days post-infection
# HIV-1 L2 = format: cell-based
# [10] = Human immunodeficiency virus 1, NL43
smiles,measurement,setting,value
"O=[N+]([O-])c1ccc(C2c3c(O)nc(S)nc3Oc3nc(S)nc(O)c32)cc1 [compound H, 5-(4-nitrophenyl)-2,8-dithiol-4,6-dihydroxy-5H-pyrano[2,3-d:6,5-d′]dipyrimidine]",EC50,HIV-1 NL43/AMD3100; [10],19.1 ± 1.4 µM
same,fold increase in EC50,HIV-1 NL43/AMD3100; NL43/AMD3100 versus wild type strain NL4.3,1.3
same,activity against HIV-1 strain resistant to bicyclam,HIV-1 NL43/AMD3100; in words,active
same,fold increase in EC50,HIV-1 L6,2.8
same,IC50,"[1]; IC50 Poly(A).oligo(dT), template-primer poly(A).oligo(dT)",24.6 ± 7.2 µM
same,IC50,"[1]; IC50 poly(C).oligo(dG), template-primer poly(C).oligo(dG)",4.8 ± 2.2 µM
same,CC50 at 5 days,[2],121 µM
same,IC50,[3],16.1 ± 10.7 µM
same,effect on the DNA strand transfer reaction,[3]; in words,strong inhibitory effect
same,added values FICnevirapine+FICV-165,HIV-1,below 0.5
same,reduction in inhibitory potency,[4],≤ 3 fold
same,EC50,HIV-1 L4; Human immunodeficiency virus 1,11.7 ± 0.7 µM
same,fold increase in EC50,HIV-1 L4; L4 versus wild type strain L1,3.2
same,EC50,HIV-1 NL43/DS5000; [10],19.4 ± 1.4 µM
same,fold increase in EC50,HIV-1 NL43/DS5000; NL43/DS5000 versus wild type strain NL4.3,1.3
same,activity against HIV-1 strain resistant to dextran sulfate,HIV-1 NL43/DS5000; in words,active
same,EC50,[5],5.5 to 30 µM
same,EC50,[6],17 µM
same,EC50,SIV (MAC251),5.5 ± 0.9 µM
same,time the addition can be postponed after virus infection,HIV-1(IIIB) [7],6 h
same,IC50,[8],0.9 ± 0.4 µM
same,inhibition of the 3-processing reaction,[8]; in words,inhibited
same,EC50,"HIV-1(IIIB) [9]; Human immunodeficiency virus 1, IIIB, MT4, 120 h",11.4 µM
same,EC50,HIV-1(IIIB) [9],8.9 ± 0.7 µM
same,activity against the replication of HIV-1(IIIB),HIV-1(IIIB) [9]; in words,active
same,EC50,HIV-1 L2; Human immunodeficiency virus 1,6 ± 2.3 µM
same,fold increase in EC50,HIV-1 L2; L2 versus wild type strain L1,1.6

# Reference: patent publication US20030187003A1, “Pharmaceutical compositions and method for the treatment of retroviral infections” (priority 2000, published 2003)
